Data on four compounds can be found in ChEMBL document CHEMBL6109064, “Functional and structural polypharmacology of indazole-based privileged ligands to tackle the undruggability of membrane transporters” (Eur J Med Chem, 2025).

The term GI50 denotes the concentration giving 50% growth inhibition. What is called pIC50 is −log10 of the IC50, conventionally taken in molar units.

Molecules are shown by their SMILES. pIC50: −log10 of the molar value. Active and inactive are the calls of the source. The calls are words filed in the database; no cut-off is given here.

The target of series [1] is Sodium-dependent serotonin transporter (Homo sapiens) (UniProt P31645). In words: Inhibition of SERT (unknown origin) expressed in HEK293 cells assessed as inhibition of MPP+ transport incubated for 5 mins by tandem mass spectrometry. In kind it is cell-based.
Chain of Sodium-dependent serotonin transporter (Homo sapiens) (P31645 whole entry, looked up): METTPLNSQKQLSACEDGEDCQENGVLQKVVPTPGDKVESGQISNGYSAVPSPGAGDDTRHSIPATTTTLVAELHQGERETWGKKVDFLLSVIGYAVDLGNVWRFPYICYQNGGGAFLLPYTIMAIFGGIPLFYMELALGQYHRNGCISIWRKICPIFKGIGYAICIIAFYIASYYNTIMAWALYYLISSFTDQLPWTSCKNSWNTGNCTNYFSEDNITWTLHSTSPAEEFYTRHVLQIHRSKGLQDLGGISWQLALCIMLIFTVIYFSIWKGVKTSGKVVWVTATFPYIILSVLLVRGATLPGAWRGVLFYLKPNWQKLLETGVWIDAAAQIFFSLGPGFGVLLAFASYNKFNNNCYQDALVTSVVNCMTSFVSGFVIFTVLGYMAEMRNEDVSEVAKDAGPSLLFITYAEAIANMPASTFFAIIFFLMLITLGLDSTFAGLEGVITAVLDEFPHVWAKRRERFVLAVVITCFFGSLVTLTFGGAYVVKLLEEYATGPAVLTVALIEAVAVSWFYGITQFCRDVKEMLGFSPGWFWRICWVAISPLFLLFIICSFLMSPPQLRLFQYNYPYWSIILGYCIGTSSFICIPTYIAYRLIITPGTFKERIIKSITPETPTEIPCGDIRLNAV
Series [2] deals with T1, Solute carrier family 22 member 3 (Homo sapiens, UniProt O75751).
T1 sequence (O75751 whole entry): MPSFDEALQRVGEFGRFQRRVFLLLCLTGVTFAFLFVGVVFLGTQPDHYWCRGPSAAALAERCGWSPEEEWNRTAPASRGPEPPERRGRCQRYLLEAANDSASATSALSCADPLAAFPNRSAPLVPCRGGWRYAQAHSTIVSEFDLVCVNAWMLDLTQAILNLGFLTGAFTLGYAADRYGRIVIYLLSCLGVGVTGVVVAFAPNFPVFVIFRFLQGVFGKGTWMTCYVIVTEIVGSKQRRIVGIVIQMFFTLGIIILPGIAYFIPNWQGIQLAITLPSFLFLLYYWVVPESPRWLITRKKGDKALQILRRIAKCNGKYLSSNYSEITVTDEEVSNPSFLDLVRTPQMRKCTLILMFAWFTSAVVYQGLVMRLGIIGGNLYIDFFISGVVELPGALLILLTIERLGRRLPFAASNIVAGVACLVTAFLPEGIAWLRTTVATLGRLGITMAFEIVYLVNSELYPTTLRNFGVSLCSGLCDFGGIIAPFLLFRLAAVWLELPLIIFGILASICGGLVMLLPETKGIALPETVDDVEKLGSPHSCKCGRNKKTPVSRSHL
Briefly: Inhibition of OCT3 (unknown origin) expressed in HEK293 cells assessed as inhibition of ASP+ uptake incubated for 5 mins by fluorescence based analysis. The format is cell-based. The conditions noted are these: for IC50: hek293; for pIC50: read-out: IC50.

In another series the test system is A549. Briefly: Cytotoxicity against MCT1 expressing human A549 cells assessed as inhibition of cell growth incubated for 72 hrs by MTT assay. In kind it is functional. Background: Tetrazolium dyes change colour on reduction, which living cells bring about.
Series [3] concerns the target T2, Monocarboxylate transporter 4 (Homo sapiens) (UniProt O15427).
T2 sequence (whole entry): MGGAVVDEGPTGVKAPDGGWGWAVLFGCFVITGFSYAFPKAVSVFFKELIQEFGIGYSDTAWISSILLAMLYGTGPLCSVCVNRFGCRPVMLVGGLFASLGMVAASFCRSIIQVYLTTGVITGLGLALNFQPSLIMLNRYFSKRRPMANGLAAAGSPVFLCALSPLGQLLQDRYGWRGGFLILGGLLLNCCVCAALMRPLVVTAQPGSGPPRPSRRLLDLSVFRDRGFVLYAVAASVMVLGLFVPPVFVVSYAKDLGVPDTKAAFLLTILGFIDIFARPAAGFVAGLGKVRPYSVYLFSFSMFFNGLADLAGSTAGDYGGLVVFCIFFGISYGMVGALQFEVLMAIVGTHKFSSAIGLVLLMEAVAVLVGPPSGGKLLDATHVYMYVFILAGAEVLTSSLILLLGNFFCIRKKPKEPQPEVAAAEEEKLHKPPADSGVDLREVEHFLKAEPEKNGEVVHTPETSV
In words: Reversal of MCT4-mediated multidrug resistance in human MDA-MB-231 cells assessed as fold increase in doxorubicin-mediated cytotoxicity incubated for 72 hrs in presence of doxorubicin by MTT assay relative to control. In kind it is cell-based.

For another series, the system named is MDA-MB-231. In words: Cytotoxicity against human MDA-MB-231 cells assessed as inhibition of cell growth by MTT assay. In kind it is functional.
In series [4] the target is T3, Monocarboxylate transporter 1 (Homo sapiens, UniProt P53985).
T3 sequence (P53985 whole entry): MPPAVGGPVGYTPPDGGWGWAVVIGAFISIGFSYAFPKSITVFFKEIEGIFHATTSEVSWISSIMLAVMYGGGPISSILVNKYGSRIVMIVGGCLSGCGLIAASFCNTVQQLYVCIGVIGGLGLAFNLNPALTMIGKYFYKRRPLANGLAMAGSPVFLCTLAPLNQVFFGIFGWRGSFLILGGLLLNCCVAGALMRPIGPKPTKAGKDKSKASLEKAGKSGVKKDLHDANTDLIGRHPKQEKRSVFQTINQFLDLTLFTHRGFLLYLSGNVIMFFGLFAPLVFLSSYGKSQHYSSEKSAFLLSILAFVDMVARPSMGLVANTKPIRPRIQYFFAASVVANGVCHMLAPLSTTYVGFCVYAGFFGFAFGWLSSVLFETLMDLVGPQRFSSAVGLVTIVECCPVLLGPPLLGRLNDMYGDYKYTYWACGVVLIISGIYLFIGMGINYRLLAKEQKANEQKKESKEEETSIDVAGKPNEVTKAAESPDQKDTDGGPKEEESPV
Briefly: Inhibition of MCT-1 in human A549 cells assessed as potentiation of 3-BP-mediated cytotoxicity by measuring decrease in cell viability incubated for 72 hrs in presence of 3-BP by MTT assay. In kind it is cell-based.

Series [5] addresses T4, Broad substrate specificity ATP-binding cassette transporter ABCG2 (Homo sapiens, UniProt Q9UNQ0).
T4 sequence (Q9UNQ0 whole entry): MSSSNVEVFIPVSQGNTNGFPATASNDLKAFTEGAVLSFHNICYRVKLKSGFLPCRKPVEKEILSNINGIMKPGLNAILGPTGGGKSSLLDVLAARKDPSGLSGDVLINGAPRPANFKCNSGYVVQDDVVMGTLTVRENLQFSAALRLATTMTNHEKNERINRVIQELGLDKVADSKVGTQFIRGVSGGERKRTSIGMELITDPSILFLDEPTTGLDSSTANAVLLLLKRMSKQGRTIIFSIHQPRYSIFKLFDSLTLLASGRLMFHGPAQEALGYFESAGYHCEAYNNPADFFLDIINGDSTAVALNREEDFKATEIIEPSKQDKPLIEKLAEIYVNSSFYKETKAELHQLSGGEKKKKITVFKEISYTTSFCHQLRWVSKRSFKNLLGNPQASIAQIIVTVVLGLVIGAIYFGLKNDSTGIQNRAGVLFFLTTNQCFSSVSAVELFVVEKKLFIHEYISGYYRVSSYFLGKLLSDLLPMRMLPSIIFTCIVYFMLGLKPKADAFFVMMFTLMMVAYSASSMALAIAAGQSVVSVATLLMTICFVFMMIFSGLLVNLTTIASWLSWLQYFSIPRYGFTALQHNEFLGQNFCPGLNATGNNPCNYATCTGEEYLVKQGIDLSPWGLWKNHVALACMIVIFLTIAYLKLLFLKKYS
Briefly: Reversal of ABCG2 (unknown origin)-mediated multidrug resistance transfected in dog MDCK-II-BCRP cells assessed as increase in SN-38-mediated cytotoxicity incubated for 72 hrs in presence of SN-38 by MTT assay. In kind it is cell-based.

Another series concerns MCF7. In words: Cytotoxicity against MCT1 expressing human MCF7 cells assessed as inhibition of cell growth incubated for 72 hrs by MTT assay. The format is functional.
The target of series [6] is T4, Broad substrate specificity ATP-binding cassette transporter ABCG2. In words: Ratio of IC50 for inhibition of ABCG2 (unknown origin) expressed in dog MDCK-II-BCRP cells using pheophorbide as tracer to EC50 for reversal of ABCG2 (unknown origin)-mediated multidrug resistance transfected in dog MDCK-II-BCRP cells in presence of SN-38. The format is cell-based.
Series [7] shares this target. Briefly: Ratio of IC50 for inhibition of ABCG2 (unknown origin) expressed in dog MDCK-II-BCRP cells using Hoechst 33342 as tracer to EC50 for reversal of ABCG2 (unknown origin)-mediated multidrug resistance transfected in dog MDCK-II-BCRP cells in presence of SN-38. The format is cell-based.

With `O=C(Cn1nc(C(=O)Nc2ccccn2)c2ccccc21)Nc1cc(Cl)ccc1Cl`, the inhibition result in series [1] is “inactive”. The IC50 result in series [2] is “Not_active”. Besides, the GI50 turned out to be 37.1 µM in the series on A549 and 29.9 µM in the series on MDA-MB-231. In addition, the fold change (FC) in series [3] amounted to 3.52.
`COc1cccc(NC(=O)Cn2nc(C(=O)Nc3cccc(OC)c3)c3ccccc32)c1`: the IC50 result in [4] and in series [2] was “Not_active” throughout. Also, the inhibition result in series [1] is “inactive”. For the same compound, in [5], the EC50 result was “Not_active”.
Turning to `O=C(Cn1nc(C(=O)Nc2cccnc2)c2ccccc21)Nc1ccc(Cl)cc1`, in series [1], the inhibition entry was “inactive”. In [2], the pIC50 was 3.95. Also, the GI50 with A549 worked out at 28.6 µM; in the series on MCF7, 10.8 µM; in the series with MDA-MB-231, 30 µM. Moreover, the “Ratio IC50/EC50” value in series [6] is reported as over 13; in series [7], over 5. Moreover, the fold change (FC) in series [3] was determined as 3.85.
With `COc1cccc(NC(=O)c2nn(CC(=O)Nc3ccccc3OC)c3ccccc23)c1`, the IC50 result in series [4] is “Not_active”. In series [1], the inhibition result is “inactive”. In [2], the pIC50 is 4.12.
